Assay: xn = mol fraction of the nth substance listed

CCCC[n+]1ccn(C)c1.COP(=O)([O-])OC + CCO
viscosity [mPa·s], 101 kPa
Settings | 293.15 K | 298.15 K | 308.15 K | 313.15 K | 318.15 K | 323.15 K | 328.15 K | 333.15 K
x2 = 0.201 | – | – | 155.7 | – | – | – | – | –
x2 = 0.399 | 150.9 | 114.4 | – | 55.65 | 45.2 | 37.08 | 30.89 | 25.94
x2 = 0.8 | – | – | 5.933 | 5.272 | – | 4.227 | 3.811 | –

CCCC[n+]1ccn(C)c1.[Cl-] + CCO
101 kPa
Settings | electrical conductivity [S/m] | viscosity [mPa·s]
293.15 K, x2 = 0.9501 | – | 1.78
298.15 K, x2 = 0.7003 | 1.07 | 10.1
298.15 K, x2 = 0.8002 | 1.45 | 4.59
303.15 K, x2 = 0.4991 | – | 49.8
303.15 K, x2 = 0.6011 | – | 20.7
303.15 K, x2 = 0.9501 | – | 1.47

CCOP(=O)([O-])OCC.CC[N+]1(C)CCOCC1 + CCO
viscosity [mPa·s], 100 kPa
Settings | 293.15 K | 298.15 K | 303.15 K | 308.15 K | 313.15 K | 318.15 K | 323.15 K | 328.15 K | 333.15 K | 338.15 K
x1 = 0.0996 | 4.62 | 4.1 | 3.75 | 3.43 | 3.13 | 2.91 | 2.76 | 2.58 | 2.4 | 2.24
x1 = 0.2018 | 12.84 | 11.11 | 9.79 | 8.75 | 7.93 | 7.21 | 6.69 | 6.18 | 5.76 | 5.54
x1 = 0.3003 | 36.7 | 29.6 | 24.7 | 20.8 | 18.1 | 15.82 | 14.33 | 13.01 | 11.79 | 10.78
x1 = 0.4018 | 97.7 | 75.1 | 59 | 47.6 | 38.2 | 31.8 | 27.3 | 23.5 | 21.1 | 18.7
x1 = 0.4998 | 257 | 183 | 136.7 | 102.9 | 78.9 | 61.3 | 49.2 | 40.1 | 33.3 | 29
x1 = 0.6009 | 625 | 419 | 291 | 209 | 155 | 116.8 | 90 | 68.9 | 54.9 | 44.7
x1 = 0.7005 | 1447 | 938 | 631 | 424 | 298 | 213 | 158 | 120.4 | 91.7 | 72
x1 = 0.7996 | 3386 | 2221 | 1448 | 895 | 582 | 409 | 282 | 205 | 155 | 114.1
x1 = 0.901 | 6136 | 3670 | 2214 | 1372 | 909 | 604 | 418 | 297 | 215 | 160
x1 = 1 | 12100 | 6680 | 3786 | 2325 | 1466 | 942 | 634 | 443 | 312 | 226

CCOP(=O)([O-])OCC.CC[n+]1ccn(C)c1 + CCO
100 kPa
Settings | viscosity [mPa·s]
293.15 K, x1 = 0.7003 | 178
293.15 K, x1 = 0.8985 | 379
293.15 K, x1 = 1 | 566
298.15 K, x1 = 0.4007 | 29.8
298.15 K, x1 = 0.7003 | 133.2
303.15 K, x1 = 0.4007 | 24.8
303.15 K, x1 = 0.8 | 139.2
303.15 K, x1 = 0.8985 | 197
308.15 K, x1 = 0.7003 | 79.6
313.15 K, x1 = 1 | 155
318.15 K, x1 = 0.8985 | 86.8
323.15 K, x1 = 0.7003 | 41.1
328.15 K, x1 = 0.1002 | 2.16
328.15 K, x1 = 0.1992 | 4.29
328.15 K, x1 = 0.5993 | 24.4
333.15 K, x1 = 0.4007 | 10.87
338.15 K, x1 = 0.7003 | 23.7

CCCC[N+]1(C)CCCC1.O=S(=O)([N-]S(=O)(=O)C(F)(F)F)C(F)(F)F + CCOC(=O)OCC
100 kPa
Settings | electrical conductivity [S/m] | viscosity [mPa·s]
293.15 K, x1 = 0.1001 | 0.343 | 1.84
293.15 K, x1 = 0.2 | 0.526 | 3.84
293.15 K, x1 = 0.4998 | 0.42 | 18.14
293.15 K, x1 = 0.8934 | 0.23 | 72.5
303.15 K, x1 = 0.2 | 0.648 | 3.18
303.15 K, x1 = 0.25 | 0.731 | –
308.15 K, x1 = 0.4998 | 0.705 | 11.73
308.15 K, x1 = 0.8934 | 0.454 | 38.8
313.15 K, x1 = 0.1001 | 0.465 | 1.22
313.15 K, x1 = 0.25 | 0.9 | –
323.15 K, x1 = 0.1001 | 0.539 | 1
323.15 K, x1 = 0.8006 | 0.793 | 18.67

CCCCCCCCn1cc[n+](C)c1.F[B-](F)(F)F + CCOC(C)=O
298.15 K, 101 kPa
Settings | viscosity [mPa·s]
x2 = 0.204 | 115.5
x2 = 0.3986 | 41.35
x2 = 0.4461 | 31.64
x2 = 0.5984 | 12.72
x2 = 0.624 | 10.93
x2 = 0.8017 | 3.1
x2 = 0.953 | 0.74

CCCC[n+]1ccn(C)c1.O=S(=O)([O-])C(F)(F)F + CCOC(C)=O
100 kPa
Settings | viscosity [mPa·s]
298.15 K, x1 = 0.6095 | 28.3
298.15 K, x1 = 0.8932 | 55
303.15 K, x1 = 0.3978 | 13.4
303.15 K, x1 = 1 | 67
313.15 K, x1 = 0.0991 | 0.84
313.15 K, x1 = 1 | 43.7
318.15 K, x1 = 0.1916 | 2.57
318.15 K, x1 = 1 | 36.3
323.15 K, x1 = 0.7987 | 18.2
323.15 K, x1 = 0.8932 | 22.4

CC[N+](C)(CC)CCOC.O=S(=O)([N-]S(=O)(=O)C(F)(F)F)C(F)(F)F + CC[N+](C)(CC)CCOC.F[B-](F)(F)F
Settings | electrical conductivity [S/m]
298.15 K, 100 kPa, x1 = 1 | 0.311
